Here are results for 16 molecules from US9682991B2, “Tricyclic compounds for use as kinase inhibitors” (FUNDACIÓN CENTRO NACIONAL DE INVESTIGACIONES ONCOLOGICAS …, priority 2009, dated 2017).

By EC50 is commonly meant the concentration giving half of the maximal effect. Usually IC50 stands for the midpoint of a concentration-inhibition curve.

Where two headings read alike, the source gives them in different places. A value given as a limit tells only on which side of the number the result lay.

In test [1] the test system is HTC116 cells (colon carcinoma). The test is described as follows: MTT in vitro cell proliferation / combination assay, HTC116. It counts as cell-based. As to conditions: HTC116, chemotherapeutic alone; read-out: Chemoth EC50. As to the method: (§1) A combination index score is calculated by the Chou and Talalay method (CalcuSyn software, Biosoft). The strength of synergy is scored using the ranking system Chou and Talalay: CI less than 0.8 indicates synergy, CI between 0.8 and 1.2 indicates additivity and CI greater than 1.2 indicates antagonism.
The EC50 values of representative combinations were also calculated. The individually measured EC50 values of the chemotherapeutic agent and the example compounds are compared to the EC50 value of the combination. The cell lines are characterised by tumor type.

Another test has as its system SKMel19 cells (melanoma). The test is described as follows: MTT in vitro cell proliferation / combination assay, SKMel19. Format: cell-based. As to the method: as §1
(§2) The EC50 values of representative combinations were also calculated. The individually measured EC50 values of the chemotherapeutic agent and the example compounds are compared to the EC50 value of the combination. The cell lines are characterised by tumor type. […]

The target of a further test is PIM-1 (Homo sapiens (Human), UniProt P11309). The test is described as follows: PIM-1 biochemical assay (ADP Hunter).
Chain of PIM-1 (P11309 whole entry): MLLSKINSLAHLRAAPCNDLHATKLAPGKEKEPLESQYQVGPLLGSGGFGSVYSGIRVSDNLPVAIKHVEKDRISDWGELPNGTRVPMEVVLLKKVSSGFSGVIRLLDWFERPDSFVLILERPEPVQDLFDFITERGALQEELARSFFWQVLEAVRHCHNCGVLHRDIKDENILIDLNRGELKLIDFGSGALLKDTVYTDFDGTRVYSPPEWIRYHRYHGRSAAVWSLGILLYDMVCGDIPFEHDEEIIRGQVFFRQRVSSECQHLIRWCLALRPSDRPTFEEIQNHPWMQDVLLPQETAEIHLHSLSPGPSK
The subject of test [2] is MV4:11 cells (leukemia, AML). Put plainly: MTT in vitro cell proliferation / combination assay, MV4:11. It counts as cell-based. As to the method: as §1, §2
For a further test, the target named is PIM-2 (Homo sapiens (Human), UniProt Q9P1W9). The test is described as follows: PIM-2 biochemical assay (ADP Hunter). As to conditions: semi-quantitative; read-out: PIM2 IC50. An excerpt: The biochemical assay to measure PIM-2 activity relies on the ADP Hunter assay kit (DiscoveRx Corp., Cat. #90-0077), that determines the amount of ADP as direct product of the kinase enzyme activity.
Chain of PIM-2 (Q9P1W9 whole entry): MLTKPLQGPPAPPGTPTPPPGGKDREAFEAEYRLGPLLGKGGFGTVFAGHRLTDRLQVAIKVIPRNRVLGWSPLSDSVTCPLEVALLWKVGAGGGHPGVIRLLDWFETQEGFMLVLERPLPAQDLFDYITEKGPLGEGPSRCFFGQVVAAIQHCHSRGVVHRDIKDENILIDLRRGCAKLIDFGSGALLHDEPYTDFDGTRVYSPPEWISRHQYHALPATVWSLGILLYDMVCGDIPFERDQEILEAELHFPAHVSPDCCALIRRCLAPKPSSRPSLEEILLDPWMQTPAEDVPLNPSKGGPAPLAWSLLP

In the next test the target is PIM-3 (Homo sapiens (Human), UniProt Q86V86). Put plainly: PIM-3 biochemical assay (ADP Hunter). As to conditions: semi-quantitative; read-out: PIM3 IC50.
Test [3] concerns Bad S112 phosphorylation in H1299 cells overexpressing Pim1 (H1299Pim1). The test is described as follows: Bad S112 phosphorylation inhibition assay (In Cell ELISA). Format: cell-based. The note with it: read-out: EC50 BadP ELISA H1299 Pim1. As to the method:
Efficacy of compounds of the invention on the inhibition of Bad phosphorylation was measured by an In Cell ELISA. EC50 values were established for the tested compounds.
Cells: H1299 cells overexpressing Pim1 (H1299Pim1)
Cells were seeded in 15000 cells per 200 μl per well into 96-well plates and incubated for 16 h at 37° C., 5% CO2. On day two, nine serial 1:2 compound dilutions were made in DMSO in a 96-well plate. The compounds were added to duplicate wells in 96-well cell plates using a FX BECKMAN robot (Beckman Coulter) and incubated at 37° C. with CO2 atmosphere. After 4 hours, relative levels of Bad S112 phosphorylation were measured in Cell ELISA using SuperSignal ELISA Femto substrate (Pierce) and read on VICTOR (Perkin Elmer). EC50 values were calculated using ActivityBase from IDBS.
(In an ELISA, binding on a coated surface is turned into a signal by an enzyme label.)

Setting [4] is: SKMel19, combination with GDC-0879.
Where [5] appears, read: SKMel19, combination with PD-0332991.
Where [6] appears, read: read-out: PIM1 IC50, semi-quantitative.
Setting [7] is: MV4:11, combination with GDC-0879.
Setting [8] is: MV4:11, combination with GDC-0941.
[9] abbreviates: MV4:11, combination with PD-0332991.
Where [10] appears, read: Homo sapiens, NCI-H1299, semi-quantitative.

Consider `O=C(NOC[C@H](O)CO)c1ccc(F)c(F)c1Nc1ccc(I)cc1F` [PD-0325901, (R)—N-(2,3-dihydroxypropoxy)-3,4-difluoro-2-(2-fluoro-4-iodophenylamino)benz-amide, reference compound], for which the EC50 in test [1] was found to be 1.25 µM.

As to `CN1CCOc2c1c(NCC1CCNCC1)nn1c(-c3cccc(OC(F)(F)F)c3)nnc21` [Example 56, [6-Methyl-3-(3-trifluoromethoxy-phenyl)-7,8-dihydro-6H-9-oxa-1,2,3a,4,6-pentaaza-cyclopenta[a]naphthalen-5-yl]-piperidin-4-ylmethyl-amine], the EC50 in the test with SKMel19 cells (melanoma) (Homo sapiens, SK-MEL19, SKMel19, example compound alone) stood at 6 µM; in test [2] (Homo sapiens, MV4:11, example compound alone), 0.5 µM. The “Combination Index (CI)” value is 0.516 in the test with SKMel19 cells (melanoma) (setting [4]); 0.568 with SKMel19 cells (melanoma) (setting [5]); 0.604 in test [2] (setting [7]); 0.024 in test [2] (setting [8]); 0.309 in test [2] (setting [9]). Besides, the Synergy entry in the test with SKMel19 cells (melanoma) (setting [4]) is “++ (0.3<C1<0.7)”; in the test with SKMel19 cells (melanoma) (setting [5]), “++ (0.3<C1<0.7)”; in test [2] (setting [7]), “++ (0.3<C1<0.7)”; in test [2] (setting [8]), “++++ (CI<0.1)”; in test [2] (setting [9]), “++ (0.3<C1<0.7)”. For the same molecule, the IC50 at PIM-1 (setting [6]) was under 0.1 µM.

Take `CNC1CCN(c2nn3c(-c4cccc(OC(F)(F)F)c4)nnc3c3c2N(C)CCO3)CC1` [Example 62, Methyl-{1-[6-methyl-3-(3-trifluoromethoxy-phenyl)-7,8-dihydro-6H-9-oxa-1,2,3a,4,6-pentaaza-cyclopenta[a]naphthalen-5-yl]-piperidin-4-yl}-amine]: the IC50 at PIM-2 was 0.1 to 1 µM; at PIM-3 it was under 0.1 µM; at PIM-1 (setting [6]) it was under 0.1 µM. Besides, the concentration for a half-maximal effect (EC50) in test [3] (setting [10]) is under 0.25 µM.

As to `CN1CCOc2c1c(N1CCC(N(C)C)CC1)nn1c(-c3cccc(OC(F)(F)F)c3)nnc21` [Example 5, Dimethyl-{1-[6-methyl-3-(3-trifluoromethoxy-phenyl)-7,8-dihydro-6H-9-oxa-1,2,3a,4,6-pentaaza-cyclopenta[a]naphthalen-5-yl]-piperidin-4-yl}-amine], the IC50 is 0.1 to 1 µM at PIM-2, 0.1 to 1 µM at PIM-3 and under 0.1 µM against PIM-1. In addition, the EC50 in test [3] (setting [10]) lay in the range of 0.25 to 1 µM.

For the molecule `CC(C)NCC1CCN(c2nn3c(-c4cccc(OC(F)(F)F)c4)nnc3c3c2OCCN3C)CC1` [Example 86, Isopropyl-{1-[9-methyl-3-(3-trifluoromethoxy-phenyl)-8,9-dihydro-7H-6-oxa-1,2,3a,4,9-pentaaza-cyclopenta[a]naphthalen-5-yl]-piperidin-4-ylmethyl}-amine], the IC50 on PIM-2 was over 1 µM; on PIM-3 it was 0.1 to 1 µM; against PIM-1 it was 0.1 to 1 µM. The EC50 in test [3] (setting [10]) lay within 1 to 10 µM.

As for `COc1ccc(-c2nnc3c4c(c(N5CCC(CN)CC5)nn23)N(C)CCO4)cc1` [Example 52, C-{1-[3-(4-Methoxy-phenyl)-6-methyl-7,8-dihydro-6H-9-oxa-1,2,3a,4,6-pentaaza-cyclopenta[a]naphthalen-5-yl]-piperidin-4-yl}-methylamine], the IC50 at PIM-2 is over 1 µM; at PIM-3, over 1 µM; on PIM-1 (setting [6]), 0.1 to 1 µM. In addition, in test [3] (semi-quantitative), the EC50 fell in the range of 1 to 10 µM.

With `CN1CCOc2c1c(NCC1CC1)nn1c(-c3cccc(OC(F)(F)F)c3)nnc21` [Example 7, Cyclopropylmethyl-[6-methyl-3-(3-trifluoromethoxy-phenyl)-7,8-dihydro-6H-9-oxa-1,2,3a,4,6-pentaaza-cyclopenta[a]naphthalen-5-yl]-amine], the IC50 on PIM-2 was 0.1 to 1 µM; on PIM-3, under 0.1 µM; at PIM-1 it was under 0.1 µM; on PIM-1 (read-out: PIM1 IC50) it was 0.0252 µM. For the same molecule, in test [3] (setting [10]), the EC50 was 1 to 10 µM.

On to `COc1ccc(-c2nnc3c4c(c(NCc5ccc(F)cc5)nn23)N(C)CCO4)cc1` [Example 81, (4-Fluoro-benzyl)-[3-(4-methoxy-phenyl)-6-methyl-7,8-dihydro-6H-9-oxa-1,2,3a,4,6-pentaaza-cyclopenta[a]naphthalen-5-yl]-amine], for which the IC50 on PIM-2 is over 1 µM; at PIM-3, 0.1 to 1 µM; at PIM-1 (setting [6]), under 0.1 µM. Further, the EC50 in test [3] (setting [10]) fell in the range of 1 to 10 µM.

Turning to `CN1CCC(CNc2nn3c(-c4cccc(OC(F)(F)F)c4)nnc3c3c2OCCN3C)CC1` [Example 17, (1-Methyl-piperidin-4-ylmethyl)-[9-methyl-3-(3-trifluoromethoxy-phenyl)-8,9-dihydro-7H-6-oxa-1,2,3a,4,9-pentaaza-cyclopenta[a]naphthalen-5-yl]-amine], the IC50 was over 1 µM on PIM-2, 0.1 to 1 µM on PIM-3 and under 0.1 µM at PIM-1 (setting [6]). The EC50 in test [3] (setting [10]) fell in the range of 1 to 10 µM.

Turning to `CC1CN(C)c2c(NCC3CCN(C)CC3)nn3c(-c4cccc(OC(F)(F)F)c4)nnc3c2O1` (centres unmarked) [Example 40, [6,8-Dimethyl-3-(3-trifluoromethoxy-phenyl)-7,8-dihydro-6H-9-oxa-1,2,3a,4,6-pentaaza-cyclopenta[a]naphthalen-5-yl]-(1-methyl-piperidin-4-ylmethyl)-amine], the IC50 on PIM-2 was 0.1 to 1 µM; on PIM-3 it was under 0.1 µM; at PIM-1 (setting [6]) it was under 0.1 µM. The EC50 in test [3] (setting [10]) lay in the range of 0.25 to 1 µM.

Turning to `CN1CCOc2c(N[C@H]3CC[C@H](O)CC3)nn3c(-c4cccc(OC(F)(F)F)c4)nnc3c21` [Example 20, 4-[9-Methyl-3-(3-trifluoromethoxy-phenyl)-8,9-dihydro-7H-6-oxa-1,2,3a,4,9-pentaaza-cyclopenta[a]naphthalen-5-ylamino]-cyclohexanol], the IC50 is over 1 µM on PIM-2, 0.1 to 1 µM at PIM-3 and 0.1 to 1 µM against PIM-1. The EC50 in test [3] (setting [10]) was in the range of 0.25 to 1 µM.

As to `FC(F)(F)Oc1cccc(-c2nnc3c4c(c(N5CCCCC5)nn23)OCCO4)c1` [Example 101, 5-Piperidin-1-yl-3-(3-trifluoromethoxy-phenyl)-7,8-dihydro-6,9-dioxa-1,2,3a,4-tetraaza-cyclopenta[a]naphthalene], the values for the IC50 on PIM-2, at PIM-3 and on PIM-1 (setting [6]) were 0.1 to 1 µM, 0.1 to 1 µM and under 0.1 µM, respectively. In addition, the EC50 in test [3] (setting [10]) fell in the range of 1 to 10 µM.

Take `CN1CCOc2c(N3CCC4(CC3)CC(N)C4)nn3c(-c4cccc(OC(F)(F)F)c4)nnc3c21` [Example 66, 7-[9-Methyl-3-(3-trifluoromethoxy-phenyl)-8,9-dihydro-7H-6-oxa-1,2,3a,4,9-pentaaza-cyclopenta[a]naphthalen-5-yl]-7-aza-spiro[3.5]non-2-ylamine]: the IC50 at PIM-2 was over 1 µM; at PIM-3, 0.1 to 1 µM; at PIM-1 (setting [6]), under 0.1 µM. Moreover, the EC50 in test [3] (setting [10]) is 1 to 10 µM.

For the molecule `CN1CCOc2c(N3CCC(CN)CC3)nn3c(-c4cccc(OC(F)(F)F)c4)nnc3c21` [Example 57, C-{1-[9-Methyl-3-(3-trifluoromethoxy-phenyl)-8,9-dihydro-7H-6-oxa-1,2,3a,4,9-pentaaza-cyclopenta[a]naphthalen-5-yl]-piperidin-4-yl}-methylamine], the IC50 at PIM-2 is over 1 µM; at PIM-3, over 1 µM; at PIM-1 (setting [6]) it was under 0.1 µM. Besides, the EC50 in test [3] (setting [10]) was 1 to 10 µM.

As to `CN1CCOc2c(NCC3CCNCC3)nn3c(-c4cccc(OC(F)(F)F)c4)nnc3c21` [Example 58, [9-Methyl-3-(3-trifluoromethoxy-phenyl)-8,9-dihydro-7H-6-oxa-1,2,3a,4,9-pentaaza-cyclopenta[a]naphthalen-5-yl]-piperidin-4-ylmethyl-amine], the IC50 is over 1 µM on PIM-2, 0.1 to 1 µM at PIM-3 and under 0.1 µM on PIM-1 (setting [6]). Also, the EC50 in test [3] (setting [10]) lay in the range of 1 to 10 µM.

As for `CN1CCC(CNc2nn3c(-c4cccc(C#N)c4)nnc3c3c2N(C)CCO3)CC1` [Example 31, 3-{6-Methyl-5-[(1-methyl-piperidin-4-ylmethyl)-amino]-7,8-dihydro-6H-9-oxa-1,2,3a,4,6-pentaaza-cyclopenta[a]naphthalen-3-yl}-benzonitrile], the IC50 at PIM-2 was over 1 µM; on PIM-3, 0.1 to 1 µM; against PIM-1, 0.1 to 1 µM. Further, in test [3] (setting [10]), the EC50 was 1 to 10 µM.
